In ChEMBL document CHEMBL1201862, “PubChem BioAssay data set” (2004):
Where “and” joins values, the source holds several entries; their conditions need not be identical. Identical values can stand only once.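 Tested at 5 concentrations; 48 h exposure; 96-well plates; endpoints linearly interpolated, else capped at highest concentration. GI50 = concentration required for 50% inhibition of growth.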 Calls of active or inactive are those of the source. No stated cut-off is given here; in the data, active = GI50 up to about 1.1 µM and inactive = higher.

How the values were obtained:
Test in all cases: NCI-60 cell line screen, 48 h
[1] = tested on: CCRF-CEM
[2] = tested on: T47D
[3] = tested on: U-251
[4] = tested on: A498
[5] = tested on: NCI-H460
[6] = tested on: KM12
[7] = tested on: OVCAR-4
[8] = tested on: TK-10
[9] = tested on: Hs-578T
[10] = tested on: UACC-257
[11] = tested on: EKVX
[12] = tested on: NCI-H522
[13] = tested on: NCI/ADR-RES
[14] = tested on: LOX IMVI
[15] = tested on: SK-OV-3
[16] = tested on: PC-3
[17] = tested on: SNB-19
[18] = tested on: MDA-MB-231
[19] = tested on: 786-0
[20] = tested on: IGROV-1
[21] = tested on: M14
[22] = tested on: MOLT-4
[23] = tested on: SF-539
[24] = tested on: SNB-75
[25] = tested on: SK-MEL-28
[26] = tested on: DU-145
[27] = tested on: SK-MEL-5
[28] = tested on: OVCAR-3
[29] = tested on: HL-60
[30] = tested on: HT-29
[31] = tested on: ACHN
[32] = tested on: UACC-62
[33] = tested on: HOP-62
[34] = tested on: SN12C
[35] = tested on: Malme-3M
[36] = tested on: SF-268
[37] = tested on: RPMI-8226
[38] = tested on: OVCAR-5
[39] = tested on: A549
[40] = tested on: K562
[41] = tested on: CAKI-1
[42] = tested on: UO-31
[43] = tested on: SW-620
[44] = tested on: SF-295
[45] = tested on: MCF7
[46] = tested on: OVCAR-8
[47] = tested on: MDA-MB-435
[48] = tested on: COLO 205
[49] = tested on: SR
[50] = tested on: HCT-15
[51] = tested on: NCI-H23
[52] = tested on: RXF 393
[53] = tested on: HCT-116
[54] = tested on: SK-MEL-2
[55] = tested on: BT-549
[56] = tested on: NCI-H226
[57] = tested on: HCC 2998
[58] = tested on: MDA-N
[59] = tested on: HOP-92

Measured: GI50

COc1cc2nc(-c3cccs3)nc(Nc3cccc([N+](=O)[O-])c3)c2cc1OC
16.5 µM: [50]
inactive: [1] 31.5 µM | [2] 16.4 µM | [3] 17.3 µM | [4] > 100 µM | [5] 26.3 µM | [6] 17.9 µM | [7] 30.9 µM | [8] 20.8 µM | [9] 26.9 µM | [10] 21.6 µM | [11] 15.3 µM | [12] 17.6 µM | [13] 20.8 µM | [14] 18.4 µM | [15] 20.3 µM | [16] 19.6 µM | [17] 17.6 µM | [18] 18 µM | [19] 21.3 µM | [20] 17.3 µM | [21] 17 µM | [22] 24.9 µM | [23] 18.2 µM | [24] 29 µM | [25] 23.7 µM | [26] 16.3 µM | [27] 29.2 µM | [28] 20.7 µM | [29] 43.4 µM | [30] 28.1 µM | [31] 15.7 µM | [32] 16.8 µM | [33] 18.7 µM | [34] 17.4 µM | [35] 18.9 µM | [36] 20.3 µM | [37] 28.1 µM | [38] 17.8 µM | [39] 21.1 µM | [40] 39 µM | [41] 21.9 µM | [42] 19.2 µM | [43] 24.2 µM | [44] 21.6 µM | [45] 24.9 µM | [46] 21.5 µM | [47] 17 µM | [48] 19.3 µM | [49] 10.8 µM | [51] 11 µM | [52] 25.9 µM | [53] 17.8 µM | [54] 20.7 µM | [55] 19.5 µM | [56] 18.2 µM

[O-][S+]1CC[S+]([O-])CC[S+]([O-])CC1 (stereo unspecified)
inactive: [1] > 100 µM | [2] > 100 µM | [3] > 100 µM | [5] > 100 µM | [6] > 100 µM | [7] > 100 µM | [8] > 100 µM | [10] > 100 µM | [11] > 100 µM | [12] > 100 µM | [13] > 100 µM | [14] > 100 µM | [15] > 100 µM | [16] > 100 µM | [17] > 100 µM | [18] > 100 µM | [19] > 100 µM | [20] > 100 µM | [57] > 100 µM | [21] > 100 µM | [22] > 100 µM | [23] > 100 µM | [24] > 100 µM | [25] > 100 µM | [26] > 100 µM | [27] > 100 µM | [28] > 100 µM | [29] > 100 µM | [30] > 100 µM | [32] > 100 µM | [33] > 100 µM | [34] > 100 µM | [36] > 100 µM | [38] > 100 µM | [39] > 100 µM | [40] > 100 µM | [58] > 100 µM | [42] > 100 µM | [43] > 100 µM | [44] > 100 µM | [45] > 100 µM | [46] > 100 µM | [47] > 100 µM | [59] > 100 µM | [48] > 100 µM | [49] > 100 µM | [51] > 100 µM | [53] > 100 µM | [55] > 100 µM
> 100 µM: [50]

CN(C(=S)Cc1ccc(Cl)c(Cl)c1)C1CCCC[C@@H]1N1CCCC1 (stereo partly specified)
inactive: [2] 38 µM | [3] 29.9 µM | [4] 13 µM | [6] 44.6 µM | [7] 84.9 µM | [8] 27.9 µM | [11] > 100 µM | [13] 85.9 µM | [15] 58.7 µM | [16] 31.4 µM | [17] > 100 µM | [18] 34.4 µM | [19] 21.9 µM | [21] 18.2 µM | [22] 51.8 µM | [23] 55.7 µM | [25] 16.7 µM | [26] > 100 µM | [27] 18.5 µM | [28] 26.1 µM | [29] 28.5 µM | [30] 16.7 µM | [31] 62.1 µM | [32] 17.5 µM | [33] 54.2 µM | [34] 63.7 µM | [37] 31.8 µM | [38] 59.8 µM | [39] 63.4 µM | [40] 61 µM | [58] 17.8 µM | [41] 44.6 µM | [42] 19.6 µM | [43] 20.1 µM | [44] 17.1 µM | [47] 26.6 µM | [51] 44.2 µM | [53] 48.1 µM | [54] 31.6 µM | [55] 72.1 µM | [56] 46.6 µM
active: [20] < 0.01 µM
58.1 µM: [50]

COc1cc(C)c(/C=C2/N=C(c3ccccc3)OC2=O)c([N+](=O)[O-])c1OC
> 100 µM: [50]
inactive: [1] 73.6 µM | [2] > 100 µM | [3] > 100 µM | [4] > 100 µM | [5] > 100 µM | [6] > 100 µM | [7] > 100 µM | [8] > 100 µM | [10] > 100 µM | [11] > 100 µM | [12] > 100 µM | [13] > 100 µM | [14] > 100 µM | [15] > 100 µM | [16] > 100 µM | [17] > 100 µM | [18] > 100 µM | [19] > 100 µM | [20] > 100 µM | [57] > 100 µM | [21] > 100 µM | [22] > 100 µM | [23] > 100 µM | [24] 89.1 µM | [25] > 100 µM | [26] > 100 µM | [28] > 100 µM | [29] > 100 µM | [30] > 100 µM | [31] > 100 µM | [32] > 100 µM | [33] > 100 µM | [34] > 100 µM | [35] > 100 µM | [36] > 100 µM | [37] > 100 µM | [38] > 100 µM | [39] > 100 µM | [40] > 100 µM | [58] > 100 µM | [41] > 100 µM | [43] > 100 µM | [44] > 100 µM | [45] > 100 µM | [46] > 100 µM | [47] > 100 µM | [59] 37.4 µM | [48] > 100 µM | [51] > 100 µM | [52] > 100 µM | [53] > 100 µM | [54] > 100 µM | [55] > 100 µM | [56] > 100 µM

CC(C)(C)OC(=O)c1cnc(Cl)cn1
11.7 µM: [50]
active: [12] 1.05 µM
inactive: [1] 18.7 µM | [2] 35.2 µM | [3] 33.8 µM | [5] 49.7 µM | [6] 22.3 µM | [7] 28.1 µM | [8] > 100 µM | [9] 35.2 µM | [10] 30.4 µM | [11] 24.2 µM | [13] 50 µM | [14] 23.8 µM | [15] > 100 µM | [16] 64.7 µM | [17] 95.3 µM | [18] 46.1 µM | [19] > 100 µM | [20] 23.4 µM | [21] 29.4 µM | [22] 27.3 µM | [23] > 100 µM | [24] > 100 µM | [25] 37.8 µM | [26] 87.5 µM | [27] 47.3 µM | [30] 46.9 µM | [31] 35.6 µM | [32] 31.8 µM | [33] > 100 µM | [34] 31.8 µM | [35] 51.6 µM | [36] 55.5 µM | [37] 23.7 µM | [38] 83.4 µM | [39] 69.7 µM | [40] 28.4 µM | [41] 3.56 µM | [42] 6.19 µM | [43] 55.8 µM | [44] > 100 µM | [45] 23.5 µM | [46] 38.2 µM | [47] 56.6 µM | [59] 3.12 µM | [48] 71.3 µM | [49] 45 µM | [51] 20.7 µM | [53] 33.6 µM | [54] 29.9 µM | [55] 48.5 µM | [56] 34.9 µM

CC(C)(C)OC(=O)C1C(=O)NC(=O)CC1CC(OCc1ccccc1)C(OCc1ccccc1)C(COCc1ccccc1)OCc1ccccc1 (stereo unspecified)
inactive: [2] 29.3 µM | [4] > 100 µM | [7] 31.6 µM and 21.1 µM | [8] > 100 µM | [9] 12 µM and 23.8 µM | [57] 30.8 µM and 54.2 µM | [24] 15 µM and 11.1 µM | [26] > 100 µM and 54 µM | [28] 24.8 µM and 31.3 µM | [30] 4.76 µM and 8.24 µM | [38] 35.6 µM and 67.8 µM | [44] 54.8 µM and 28.3 µM | [59] 17.5 µM and 13 µM | [55] 24.9 µM and 14.6 µM
